Literature values as cited in patent US6184241A, “Aspartic protease inhibitors” (Kansas State University Research Foundation, priority 1998, dated 2001).

Details: heterocyclic ring

For `c1c[nH]cn1` [imidazole], the pKa is given as 6.0-7.0.
